Entries after “also recorded” stand apart in the source; their conditions may differ.
Assays:
[1] = target: HDAC6 (Homo sapiens (Human), UniProt Q9UBN7); experiment: Inhibition of purified HDAC6; conditions: read-out: HDAC 6 IC50; class II
[2] = tested on: dTomato^+/cKit^+ AML cells (CBFβ-SMMHC^+ LSCs); experiment: Ex vivo treatment of CM-induced AML cells followed by transplantation into irradiated congenic mice; type: in vivo
Experimental: FIGS. 6A-6G. […] FIG. 6A: Schematic illustration of experimental design. […] Progression of AML was monitored by engraftment of AML cells in peripheral blood (PB) over time (4, 8 weeks) and engraftment in bone marrow and spleen was analyzed 8 weeks after transplantation. A cohort of mice was monitored for AML development and disease-free survival. […] Results represent mean±SD. […] FIG. 6D: Representative FACS plots of engrafted dTomato^+/cKit^+ AML cells in the bone marrow or spleen 8 weeks after transplantation.
Ai14 Cre reporter tdTomato mice on C57BL/6 background were obtained from the Jackson Laboratory. To induce CBFβ-SMMHC expression, 4-6 week old Mx1-Cre/Cbfb^56M/+ mice were injected with 250 μg of polyinosinic-polycytidylic acid (pIpC) (InvivoGen) every 2 days for 7 doses. Similarly treated Cbfb^56M/+ littermates without Cre were used as control. Pre-leukemic cells were isolated from mice 2 weeks after the last dose of pIpC treatment. For leukemia development, induced mice were monitored up to 6 months and analyzed when moribund. Transplantation of AML cells (2×10^6 cells/mouse) was performed via tail vein injection into sub-lethally irradiated (6.5 Gy) 6-8-week-old congenic C57BL/6 mice (CD45.1^+/CD45.2^+). All mice were maintained in an AAALAC-accredited animal facility at City of Hope, and all experimental procedures involving mice were performed in accordance with federal and state government guidelines and established institutional guidelines and protocols approved by the Institutional Animal Care and Use Committee at Beckman Research Institute of City of Hope.
AML LSCs are functionally characterized by their capacity to engraft and reproduce AML disease in transplanted host. […] To test this, we made use of our murine CM-induced AML model allowing for high-level engraftment and reproducible disease upon secondary transplantation. To facilitate tracking of CM-expressing AML cells, we created Cbfb^56M/+/Mx1-Cre mice with a Cre-reporter line expressing tdTomato fluorescence protein following Cre-mediated recombination.

[3] = tested on: inv(16)^+ AML CD34^+ cells; experiment: Proliferation of inv(16)+ AML CD34+ cells, ATP-based cell viability assay; parameters: species or system human; conditions: 48 h, 2.5 μM to 40 μM, compared to normal CD34+ cells
[4] = tested on: normal CD34^+ cells; experiment: Apoptosis/cytotoxicity in normal CD34+ cells
Description: Given that the frequency of TP53 mutation is relatively low in AML, altered post-translational modification by HDAC8 could represent an alternative p53-inactivating mechanism and contribute to drug resistance of AML stem cells. We first examined the expression of HDAC8 in CD34^+ stem and progenitor cells isolated from patients with inv(16)^+ AML compared to normal mobilized peripheral blood stem cells (PBSC).

[5] = tested on: Ac-p53 (K379) in 32D-CM cells; experiment: Western blot of Ac-p53 in CBFβ-SMMHC (CM)-expressing 32D cells; type: cell-based
Description: Cells were lysed in RIPA buffer containing protease inhibitor cocktail (Roche) and MG132. Antibodies used for IP were conjugated with protein A/G beads using the antibody cross-linking kit (Pierce Biotechnology, Rockford, Ill.) following manufacturer's protocol. For Western blot, proteins were resolved in 10% SDS-PAGE. The antibodies used induced anti-FLAG (Sigma), anti-HDAC8, anti-CBFβ (Santa Cruz), anti-p53 (DO-1), anti-Ac-p53 (K379) (Cell Signaling), anti-p53 (Cell signaling) and anti-β-actin (Sigma). Horseradish peroxidase-conjugated anti-rabbit or anti-mouse secondary antibodies (Jackson ImmunoResearch, West Grove Pa.) were used, followed by detection using the SuperFemto kit (Pierce Biotechnology, Rockford, Ill.).
Class 1 HDACs, including HDAC1, HDAC2, and HDAC3, reportedly could inhibit p53 activity by deacetylating p53 [41-43]. […] To test this, we used lentivirus (pLKO. 1) mediated expression of 2 independent small-hairpin (sh)-RNA sequences against Hdac8 to specifically knock-down Hdac8 in 32D-CM cells. Cells were exposed to IR (3Gy) and analyzed for levels of p53 acetylation 6 h after.

[6] = tested on: MV4-11 cells; experiment: Survival/apoptosis of MV4-11 AML cells by Annexin V labeling; type: cell-based, human
[7] = tested on: CL1-5 cells; experiment: Cytotoxicity / anti-proliferative activity in CL1-5 lung cancer cells
[8] = tested on: normal HSCs (CB CD34^+ cells); experiment: Engraftment of normal CB CD34+ cells treated ex vivo into NSG mice; conditions: 10 μM 48 h ex vivo, 16 weeks
Description: FIGS. 18A-18F. […] Shown are engraftment levels of each population (CD45+, CD34+, CD33+, CD14+, CD15+) in the bone marrow and spleen weight at 16 weeks after transplantation. […] FIGS. 18A-18F (in order): CD45+, CD34+, CD33+, CD14+, CD15+, and spleen.
AML is maintained by LSCs that are relatively resistant to chemotherapy and can persist as potential sources of relapse. Even though AML with CBF translocations are considered to have favorable prognosis, the incidence of relapse is still 25-58% with chemotherapy.

[9] = target: HDAC4 (Homo sapiens (Human), UniProt P56524); experiment: Inhibition of purified HDAC4; conditions: read-out: HDAC 4 IC50; class II
Chain of HDAC4 (P56524 whole entry, species assumed): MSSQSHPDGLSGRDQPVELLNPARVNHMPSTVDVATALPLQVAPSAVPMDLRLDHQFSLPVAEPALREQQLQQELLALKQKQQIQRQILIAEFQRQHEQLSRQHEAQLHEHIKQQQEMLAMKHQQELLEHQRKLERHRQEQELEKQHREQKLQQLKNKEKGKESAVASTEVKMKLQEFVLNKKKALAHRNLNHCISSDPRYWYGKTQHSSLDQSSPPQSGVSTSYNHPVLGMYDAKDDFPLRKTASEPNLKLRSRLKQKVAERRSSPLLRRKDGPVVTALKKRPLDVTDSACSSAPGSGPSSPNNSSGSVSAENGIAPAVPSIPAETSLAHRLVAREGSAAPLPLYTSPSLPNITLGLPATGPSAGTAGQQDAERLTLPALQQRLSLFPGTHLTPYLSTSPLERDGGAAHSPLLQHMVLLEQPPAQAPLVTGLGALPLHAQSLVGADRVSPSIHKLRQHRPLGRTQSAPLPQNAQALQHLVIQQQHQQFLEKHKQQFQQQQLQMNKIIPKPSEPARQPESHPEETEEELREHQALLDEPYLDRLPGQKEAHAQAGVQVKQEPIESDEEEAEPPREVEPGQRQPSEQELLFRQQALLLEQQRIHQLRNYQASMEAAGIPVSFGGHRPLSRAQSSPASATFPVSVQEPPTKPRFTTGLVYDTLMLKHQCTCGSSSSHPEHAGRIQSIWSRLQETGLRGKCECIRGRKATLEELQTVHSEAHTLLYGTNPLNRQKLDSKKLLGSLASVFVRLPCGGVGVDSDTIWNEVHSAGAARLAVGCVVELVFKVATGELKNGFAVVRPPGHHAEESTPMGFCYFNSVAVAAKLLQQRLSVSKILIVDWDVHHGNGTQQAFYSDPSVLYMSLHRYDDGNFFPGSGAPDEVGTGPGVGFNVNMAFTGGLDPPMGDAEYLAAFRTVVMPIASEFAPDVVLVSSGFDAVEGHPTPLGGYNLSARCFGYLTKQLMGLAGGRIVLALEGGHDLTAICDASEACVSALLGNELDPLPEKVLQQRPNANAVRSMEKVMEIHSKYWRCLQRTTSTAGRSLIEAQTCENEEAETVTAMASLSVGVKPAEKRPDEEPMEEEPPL

[10] = tested on: dTomato^+/cKit^+ AML cells; experiment: In vivo administration of 22d to mice transplanted with AML cells
Experimental: FIG. 7A-7I. […] FIG. 7A: Schematic illustration of experimental design. Cbfb^+/56MMx1Cre/tdTomato^+ mice were induced with pIpC and AML cells were isolated from bone marrow of moribund mice and transplanted into sub-lethally irradiated (6.5 Gy) C57Bl/6 congenic mice. […] AML engraftment was analyzed at the end of the treatment period, and transplanted into 2nd recipients. Recipients were analyzed for engraftment at 8 weeks or monitored for leukemia onset and survival. […] Mice were analyzed 8 weeks after transplantation. […] FIG. 7G.
AML cells (1×10^6 or 2×10^6) were directly transplanted into sub-lethally irradiated congenic recipients. […] To further assess the impact on LSC activity, we transplanted bone marrow cells (2×10^6) from these treated mice into secondary recipients and analyzed for AML engraftment.

Chain of HDAC6 (Q9UBN7 whole entry, species assumed): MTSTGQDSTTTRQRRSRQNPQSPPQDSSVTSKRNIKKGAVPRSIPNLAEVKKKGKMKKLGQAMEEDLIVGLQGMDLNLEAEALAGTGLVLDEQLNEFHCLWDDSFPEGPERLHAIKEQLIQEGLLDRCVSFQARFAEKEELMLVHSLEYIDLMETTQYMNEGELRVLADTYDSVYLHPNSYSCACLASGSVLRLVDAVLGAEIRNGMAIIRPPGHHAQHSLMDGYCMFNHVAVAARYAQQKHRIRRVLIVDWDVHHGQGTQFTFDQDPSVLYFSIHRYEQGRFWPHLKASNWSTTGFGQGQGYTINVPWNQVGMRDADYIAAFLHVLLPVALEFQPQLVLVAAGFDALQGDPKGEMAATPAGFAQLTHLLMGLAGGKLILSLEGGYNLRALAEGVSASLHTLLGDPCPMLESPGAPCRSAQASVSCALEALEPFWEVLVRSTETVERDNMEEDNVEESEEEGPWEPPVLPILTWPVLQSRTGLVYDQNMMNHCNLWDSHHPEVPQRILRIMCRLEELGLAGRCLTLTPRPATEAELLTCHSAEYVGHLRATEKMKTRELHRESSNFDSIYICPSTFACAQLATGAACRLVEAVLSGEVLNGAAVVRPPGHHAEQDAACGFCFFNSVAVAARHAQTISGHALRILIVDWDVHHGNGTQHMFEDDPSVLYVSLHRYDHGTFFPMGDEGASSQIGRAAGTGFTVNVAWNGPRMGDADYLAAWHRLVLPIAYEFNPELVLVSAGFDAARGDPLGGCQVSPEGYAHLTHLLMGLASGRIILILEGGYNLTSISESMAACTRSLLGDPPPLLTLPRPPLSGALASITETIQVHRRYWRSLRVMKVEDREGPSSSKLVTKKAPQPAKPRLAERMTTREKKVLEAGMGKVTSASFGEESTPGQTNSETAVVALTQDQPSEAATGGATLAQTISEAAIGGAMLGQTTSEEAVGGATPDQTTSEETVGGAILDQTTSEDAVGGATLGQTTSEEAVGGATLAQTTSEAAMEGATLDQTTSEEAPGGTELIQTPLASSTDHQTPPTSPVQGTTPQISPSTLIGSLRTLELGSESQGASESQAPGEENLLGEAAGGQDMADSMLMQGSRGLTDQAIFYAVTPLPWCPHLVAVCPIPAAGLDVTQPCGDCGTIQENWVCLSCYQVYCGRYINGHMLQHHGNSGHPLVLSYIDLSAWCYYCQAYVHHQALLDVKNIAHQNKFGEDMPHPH

COc1ccc(/C=C/C(=O)NO)c(-c2ccc(-c3ccccc3)cc2)c1 [Compound 22d, (E)-N-Hydroxy-4-methoxy-2-(biphenyl-4-yl)cinnamide]
IC50 [1]: > 0.02 µM
frequencies of dTomato+/cKit+ AML cells in BM and spleen ([2]; 8 weeks after transplantation, vs vehicle-treated cells): significantly (p=0.025) reduced frequencies
total numbers of dTomato+/cKit+ AML cells in BM and spleen ([2]; 8 weeks after transplantation, vs vehicle-treated group): significantly (p=0.025) lower
dTomato+/cKit+ cells in the peripheral blood ([2]; cells treated 10 μM 48 h before transplantation): barely detectable
engraftment of dTomato+ and dTomato+/cKit+ cells ([2]; equal number (2×10^6) of treated AML cells transplanted): reduced the engraftment
AML onset and survival of transplanted mice ([2]; mouse, in vivo): prevented AML reoccurrence
survival of mice ([2]; mouse, in vivo): enhanced survival
proliferation of inv(16)+ CD34+ cells [3]: significantly reduced proliferation
difference between CD34+ cells from PBSC and CB ([4]; based on cell origin): no significant difference
cytotoxicity in normal CD34+ cells ([4]; higher dose (40 μM), 48 h): Modest cytotoxicity
Ac-p53 level in CM-expressing cells ([5]; Western blot, 6 h): remarkably increased Ac-p53
Ac-p53 level, in combination with Nutlin-3 ([5]; compared to Nutlin-3 alone): enhanced Ac-p53 compared to Nutlin-3 alone
enhancement of p53 acetylation compared to other HDAC inhibitors ([5]; vs MS-275, TV6, PCI-24781): differential activity in enhancing p53 acetylation
IC50 ([6]; 48-hr, Annexin V labeling, read-out: MV4-11 Apoptosis IC50): 2.71 µM
survival of MV4-11 cells ([6]; 48 h, result in words): decreases with increased HDAC8i concentration
IC50 ([7]; read-out: Cytotoxicity IC50 Cl1-5, mean SD of three determinations): 0.007 ± 0.0015 µM
activity in CL1-5 cells ([7]; result in words): activity similar to that of SAHA
engraftment activity of normal HSCs [8]: does not affect normal HSC engraftment; also recorded: no impact on short-term or long-term engraftment activity
IC50 [9]: > 0.02 µM
leukemia onset in secondary recipients ([10]; 5-7 weeks after transplant of 5×10^6 BM cells): no signs of leukemia
frequency and number of AML cells in bone marrow of secondary recipients ([10]; 8 weeks after transplantation of BM from treated mice): Significant reduction in the frequency (p<0.0001) and the number (p=0.0006)
frequency and number of dTomato+/cKit+ AML cells in the bone marrow ([10]; intraperitoneal 50 mg/kg/dose twice a day for 2 weeks, vs vehicle): significantly reduced the frequency (p=0.0097) and the number (p=0.0101)

Source: patent US11505523B2, “HDAC8 inhibitors for treating cancer” (City of Hope, priority 2013, dated 2022)
